The values that follow come from patent publication US8759318B2, “Phosphoramidate derivatives of guanosine nucleoside compounds for treatment of viral infections” (Inhibitex, Inc., priority 2009, dated 2014).

Molecules are shown by their SMILES. Like-named read-outs stand apart in the source and are kept apart here. Where only a bound is given, the exact number is not on record here.

The nature of data set [1]: Protide stability in normal plasma, rat. As to conditions: 37° C. It counts as in vitro ADME. On the procedure:
(§1) Selected nucleoside 5′-phosphoramidates were examined for stability in human, cynomolgous monkey, rat and mouse plasma at 37° C. at both 30 min and 90 min time points.
(§2) Protide Stability in Normal Plasma: Plasma samples were prepared for analysis as follows. 50 μl of each test sample were distributed a 96-well V-bottom plate. 200 μl of acetonitrile containing 10 ng/ml of an internal standard was added to each plasma sample. The precipitated samples were centrifuged at 2500 rpm, 4° C. for 20 minutes in a Sorvall RT6000S centrifuge (Thermo Scientific, Waltham Mass.) and 100 μl of supernatant from each sample was transferred into a 96 deep well plate followed by the addition of 100 μl H2O to each sample. Samples were covered, mixed well by vortexing and maintained at 2-8° C. before and during analysis. 15 μl of each test sample was analyzed for protide concentrations by liquid chromatography coupled to tandem mass spectrometry (LC-MS/MS). Liquid chromatography was performed with an Agilent 1100 Series HPLC system equipped with a Synergi 4 μm Polar-RP, 30×2.0 mm column (Phenomenex, Torrance, Calif.). The HPLC system was coupled to an API 4000 triple quadrupole mass spectrometer (Applied Biosystems, Framingham, Mass.). Mass spectrometry was performed in positive ion mode and data was analyzed using Analyst® v1.4.2 software (Applied Biosystems, Framingham, Mass.). Data was presented as the percentage of compound recovered as compared to the 0 time point control.

Data set [2] concerns Adenovirus Type 1. As to the kind of experiment: Cytoprotection assay, Adenovirus. It counts as cell-based. As to conditions: Adenovirus Type I, HeLa.
Data set [3] deals with Influenza A strain Hong Kong. As to the kind of experiment: Cytoprotection assay, Influenza A. Type of data set: cell-based. As to conditions: Influenza A virus, MDCK.
The subject of data set [4] is Rhinovirus strain 1B. The data set can be described thus: Cytoprotection assay, Rhinovirus. Type of data set: cell-based. As to conditions: Enterovirus, MRC5.
A short description of data set [5]: Mouse PK: 2'-C-methylguanosine triphosphate levels in liver. As to conditions: 2'-C-methylguanosine triphosphate in mouse liver, 50 mg/kg PO.
In data set [6] the test system is Vero cells.
For data set [7], the system named is HIV-1 Strain IIIB. As to the kind of experiment: Cytoprotection assay for HIV. It counts as cell-based. As to conditions: Human immunodeficiency virus 1; HIV-1 IIIB, MT-4. As to the method: Activity against other viruses. A representative compound, Example 20, Compound F, was tested against a panel of other RNA and DNA viruses. Compound F was synthesized as described in the Experimental section. Experimental conditions for growing the cells and viruses are listed below. Unless otherwise indicated, cells and viruses were obtained from the American Type Culture Collection (ATCC, Rockville, Md.).
(§3) MT-4 cells ((Catalog #120) Human T-cell Leukemia) were obtained from the NIH AIDS Reference Reagent Program and were used in cytoprotection assays with HIV-1 Strain IIIB (Southern Research). They were grown in RPMI-1640 medium supplemented with 10% FBS.
Cytoprotection Assay for HIV:_MT-4 cells were sub-cultured one day prior to testing. Cells were plated in 96 well cell culture plates at a seeding density of 6×10^5 cells/ml (3×10^4 cells/well). […] Cytoprotection and compound cytotoxicity were assessed by XTT assay (Cat#11-465-015-001, Roche Diagnostics). The plates were read spectrophotometrically at 450/650 nm with a Molecular Devices SpectraMax M2 plate reader. The percent reduction in viral CPE was determined and reported as IC50, CC50 and a calculated TI. Samples were evaluated for antiviral efficacy and cytotoxicity with triplicate measurements using 9 concentrations at 2-fold dilutions. […]

Data set [8] has as its system Dengue Virus Type 2 strain New Guinea. As to the kind of experiment: Cytoprotection assay, Dengue virus. Type of data set: cell-based. As to conditions: Vero C1008.
The test system of data set [9] is Yellow Fever Virus strain 17D. As to the kind of experiment: microbe, parasite or virus in culture. As to conditions: HeLa. Type of data set: cell-based.
Data set [10] in a line: Compound cytotoxicity in cytoprotection assay (MTS), MDBK. As to conditions: cow, MDBK cells.
Data set [11] concerns Vaccinia Strain Western Reserve. As to the kind of experiment: microbe, parasite or virus in culture. As to conditions: Orthopoxvirus vaccinia, Vero C1008. It counts as cell-based.
Data set [12] can be described thus: Protide stability in normal plasma, mouse. It counts as in vitro ADME. As to conditions: 37° C. On the procedure: as §1, §2
The nature of data set [13]: in vitro. As to conditions: African green monkey.
The test system of data set [14] is HeLa cells. As to conditions: human.
Data set [15] has as its system HCV replicon (Genotype 1b). As to the kind of experiment: Luciferase genotype 1b replicon potency assay. As to conditions: Hepatitis C virus, GETYPE1B, read-out: IC50 μM, HCV genotype 1b luciferase replicon, Renilla luciferase reporter. Background: A replicon is a self-replicating genome or part of one, used to study replication in cells.
The test system of data set [16] is Coxsackie virus strain B4. The data set can be described thus: Cytoprotection assay, Coxsackie virus. It counts as cell-based. As to conditions: Enterovirus B, B4, Vero.
The nature of data set [17]: Compound cytotoxicity in HIV cytoprotection assay (XTT). It counts as cell-based. As to conditions: human, MT-4 cells; MT-4, HIV-1 assay. On the procedure:
as §3
Cytoprotection Assay for HIV:_MT-4 cells were sub-cultured one day prior to testing. Cells were plated in 96 well cell culture plates at a seeding density of 6×10^5 cells/ml (3×10^4 cells/well). […] Virus and cells were mixed in the presence of serial dilutions of test compound and incubated for 5 days at 37° C., 5% CO2. Each assay plate contained cell control wells (cells only), virus control wells (cells plus virus), compound toxicity control wells (cells plus compound only) as well as experimental wells (compound plus cells plus virus). Cytoprotection and compound cytotoxicity were assessed by XTT assay (Cat#11-465-015-001, Roche Diagnostics). The plates were read spectrophotometrically at 450/650 nm with a Molecular Devices SpectraMax M2 plate reader. The percent reduction in viral CPE was determined and reported as IC50, CC50 and a calculated TI. Samples were evaluated for antiviral efficacy and cytotoxicity with triplicate measurements using 9 concentrations at 2-fold dilutions. Each assay included Raltegravir (MK0518) as an antiviral positive control compound.
On the technique in general: Tetrazolium dyes change colour on reduction, which living cells bring about.

In general, EC50 refers to the concentration needed to bring the measured effect to its halfway point. What is called IC50 is the midpoint of a concentration-inhibition curve. As for `COc1nc(N)nc2c1ncn2C1O[C@H](COP(=O)(N[C@@H](C)C(=O)OCC(C)(C)C)Oc2cccc3ccccc23)[C@@H](O)[C@@]1(C)O` (stereo partly shown) [Example 20], the “% Compound Remaining Compared to %100 Acetonitrile Control” value in data set [1] (30 min), in [1] (1.5 h), in data set [12] (30 min) and in data set [12] (1.5 h) was 0% in each case. The EC50 in data set [2] is > 10 µM; in data set [3], > 10 µM; in data set [4], > 10 µM; in [7], > 10 µM; in [8] it was 1.81 µM; in data set [9], 0.418 µM. Further, the EC50 in data set [11] is 4.52 µM; in data set [16], > 10 µM. The AUC0-6 in data set [5] stood at 31940 ng·h/g. In addition, in [5], the AUC0-24 amounted to 59353 ng·h/g. Also, the CC50 in data set [6] (African green monkey) is > 10 µM; in [6] (Vero, HSV-1 assay), > 10 µM; in data set [6] (Vero, RSV assay) it was > 10 µM; in [13], > 10 µM; in data set [14], > 10 µM. Besides, in [10], the CC50 at 7 days was > 10 µM. The IC50 in data set [15] is 0.001 µM. For the same molecule, the CC50 at 5 days in data set [17] amounted to 11 µM.
